Measurements as given in patent publication US12509444B2, “Compounds and methods for CD73 modulation and indications therefor” (Plexxikon Inc., priority 2019, dated 2025).

Tests used:
[1] = molecular target: T1, Human CD73 (amino acid residues 27-549) (Homo sapiens, UniProt P21589); assay: CD73 enzymatic assay (luciferase-based indirect assay, CellTiter-Glo); type: biochemical; settings: 0.4 nM CD73, 150 μM AMP, 1 hour at room temperature
T1 construct: Human CD73 (amino acid residues 27-549); His tag (N); made in house; host or cells: E. coli
T1 sequence (P21589 27-549): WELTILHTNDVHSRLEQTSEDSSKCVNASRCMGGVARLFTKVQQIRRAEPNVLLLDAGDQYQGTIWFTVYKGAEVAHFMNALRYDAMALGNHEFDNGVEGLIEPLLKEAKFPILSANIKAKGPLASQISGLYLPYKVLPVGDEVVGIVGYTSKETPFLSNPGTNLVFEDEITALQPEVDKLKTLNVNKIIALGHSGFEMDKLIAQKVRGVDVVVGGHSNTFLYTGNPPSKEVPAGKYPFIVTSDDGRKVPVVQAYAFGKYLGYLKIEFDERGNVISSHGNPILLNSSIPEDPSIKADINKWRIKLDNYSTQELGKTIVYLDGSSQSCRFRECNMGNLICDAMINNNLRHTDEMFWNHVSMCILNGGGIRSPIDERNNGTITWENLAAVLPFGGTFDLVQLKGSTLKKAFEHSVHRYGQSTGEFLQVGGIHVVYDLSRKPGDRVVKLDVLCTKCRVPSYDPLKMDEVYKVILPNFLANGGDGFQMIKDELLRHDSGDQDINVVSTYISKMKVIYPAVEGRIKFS
Outline: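 His-tagged human CD73 (27-549) from E. coli, 0.4 nM, with 150 μM AMP in 50 mM HEPES pH 7.4, 0.01% Tween 20; 1 h at room temperature. AMP remaining read by CellTiter-Glo 2.0 luminescence with 1 μM final ATP after 30 min. IC50 from nonlinear regression of % inhibition.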

human CD73 = molecular target: T2, human CD73 (Homo sapiens, UniProt P21589); assay: Inhibitor activity against CD73 in cell based assay (CD73 expressing CHO-K1 cells); settings: CHO-K1 cells expressing human CD73, 150 μM AMP, 4 hours of incubation; read-out: CHO-K1 CELL VARIANT: CD73 IC50
T2 construct: expressed in transfected cells
T2 sequence (P21589 27-549): T1 sequence (P21589 27-549)
Outline: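 Stably transfected CHO-K1 cells expressing human CD73 (1×10^4/well) incubated 4 h with compound (8-point 1:3 titration, top 10 μM final, 0.2% DMSO) and 150 μM AMP. Residual AMP in supernatant measured by CellTiter-Glo luminescence with 1 μM ATP after 30 min at room temperature; IC50 by nonlinear regression of percent inhibition vs high/low controls.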

Row | IC50 [1] | IC50 (human CD73) | Structure (SMILES)
1 | 0.001 to 10 µM | 0.001 to 10 µM | Cc1noc(C)c1S(=O)(=O)N[C@H]1CC[C@H](NC(=O)O[C@@H]2CCN(c3cn[nH]c(=O)c3Cl)C2)CC1 [P-0302, (R)-1-(5-chloro-6-oxo-1,6-dihydropyridazin-4-yl)pyrrolidin-3-yl ((1r,4R)-4-((3,5-dimethylisoxazole)-4-sulfonamido)cyclohexyl) carbamate]
2 | 0.001 to 10 µM | 0.001 to 10 µM | COCCS(=O)(=O)N[C@H]1CC[C@H](NC(=O)O[C@@H]2CCN(c3cn[nH]c(=O)c3Cl)C2)CC1 [P-0303, (R)-1-(5-chloro-6-oxo-1,6-dihydropyridazin-4-yl)pyrrolidin-3-yl ((1r,4R)-4-((2-methoxyethyl)sulfonamido)cyclohexyl)carbamate]
3 | 0.001 to 10 µM | 0.001 to 10 µM | O=C(N[C@H]1CC[C@H](NS(=O)(=O)CCC(F)(F)F)CC1)O[C@@H]1CCN(c2cn[nH]c(=O)c2Cl)C1 [P-0304, (R)-1-(5-chloro-6-oxo-1,6-dihydropyridazin-4-yl)pyrrolidin-3-yl ((1r,4R)-4-((3,3,3-trifluoropropyl)sulfonamido)cyclohexyl)carbamate]
4 | 0.001 to 10 µM | 0.001 to 10 µM | O=C(N[C@H]1CC[C@H](NS(=O)(=O)CC(F)(F)F)CC1)O[C@@H]1CCN(c2cn[nH]c(=O)c2Cl)C1 [P-0305, (R)-1-(5-chloro-6-oxo-1,6-dihydropyridazin-4-yl)pyrrolidin-3-yl ((1r,4R)-4-((2,2,2-trifluoroethyl)sulfonamido)cyclohexyl)carbamate]
5 | 0.001 to 10 µM | 0.001 to 10 µM | O=C(N[C@H]1CC[C@H](NS(=O)(=O)Cc2ccccc2)CC1)O[C@@H]1CCN(c2cn[nH]c(=O)c2Cl)C1 [P-0306, (R)-1-(5-chloro-6-oxo-1,6-dihydropyridazin-4-yl)pyrrolidin-3-yl ((1r,4R)-4-((phenylmethyl)sulfonamido)cyclohexyl)carbamate]
6 | 0.001 to 10 µM | 0.001 to 10 µM | N#CCS(=O)(=O)N[C@H]1CC[C@H](NC(=O)O[C@@H]2CCN(c3cn[nH]c(=O)c3Cl)C2)CC1 [P-0307, (R)-1-(5-chloro-6-oxo-1,6-dihydropyridazin-4-yl)pyrrolidin-3-yl ((1r,4R)-4-((cyanomethyl)sulfonamido)cyclohexyl)carbamate]
7 | 0.001 to 10 µM | 0.001 to 10 µM | C=CS(=O)(=O)N[C@H]1CC[C@H](NC(=O)O[C@@H]2CCN(c3cn[nH]c(=O)c3Cl)C2)CC1 [P-0308, (R)-1-(5-chloro-6-oxo-1,6-dihydropyridazin-4-yl)pyrrolidin-3-yl ((1r,4R)-4-(vinylsulfonamido)cyclohexyl) carbamate]
8 | 0.001 to 10 µM | 0.001 to 10 µM | O=C(N[C@H]1CC[C@H](NS(=O)(=O)c2c[nH]cn2)CC1)O[C@@H]1CCN(c2cn[nH]c(=O)c2Cl)C1 [P-0309, (R)-1-(5-chloro-6-oxo-1,6-dihydropyridazin-4-yl)pyrrolidin-3-yl ((1r,4R)-4-(1H-imidazole-4-sulfonamido)cyclohexyl) carbamate]
9 | 0.001 to 10 µM | 0.001 to 10 µM | CN1CCN(S(=O)(=O)N[C@H]2CC[C@H](NC(=O)O[C@@H]3CCN(c4cn[nH]c(=O)c4Cl)C3)CC2)CC1 [P-0310, (R)-1-(5-chloro-6-oxo-1,6-dihydropyridazin-4-yl)pyrrolidin-3-yl ((1r,4R)-4-((4-methylpiperazine)-1-sulfonamido)cyclohexyl) carbamate]

Continued, molecule first:

Row | Structure (SMILES) | IC50 [1] | IC50 (human CD73)
10 | O=C(N[C@H]1CC[C@H](NS(=O)(=O)C2CCC2)CC1)O[C@@H]1CCN(c2cn[nH]c(=O)c2Cl)C1 [P-0291, (R)-1-(5-chloro-6-oxo-1,6-dihydropyridazin-4-yl)pyrrolidin-3-yl ((1r,4R)-4-(cyclobutanesulfonamido)cyclohexyl)carbamate] | 0.001 to 10 µM | 0.001 to 10 µM
11 | O=C(N[C@H]1CC[C@H](NS(=O)(=O)c2ccc(Cl)cc2)CC1)O[C@@H]1CCN(c2cn[nH]c(=O)c2Cl)C1 [P-0292, (R)-1-(5-chloro-6-oxo-1,6-dihydropyridazin-4-yl)pyrrolidin-3-yl ((1r,4R)-4-((4-chlorophenyl)sulfonamido)cyclohexyl)carbamate] | 0.001 to 10 µM | 0.001 to 10 µM
12 | Cc1ccc(S(=O)(=O)N[C@H]2CC[C@H](NC(=O)O[C@@H]3CCN(c4cn[nH]c(=O)c4Cl)C3)CC2)cc1 [P-0293, (R)-1-(5-chloro-6-oxo-1,6-dihydropyridazin-4-yl)pyrrolidin-3-yl ((1r,4R)-4-((4-methylphenyl)sulfonamido)cyclohexyl)carbamate] | 0.001 to 10 µM | 0.001 to 10 µM
13 | O=C(N[C@H]1CC[C@H](NS(=O)(=O)c2cccc(F)c2)CC1)O[C@@H]1CCN(c2cn[nH]c(=O)c2Cl)C1 [P-0294, (R)-1-(5-chloro-6-oxo-1,6-dihydropyridazin-4-yl)pyrrolidin-3-yl ((1r,4R)-4-((3-fluorophenyl)sulfonamido)cyclohexyl)carbamate] | 0.001 to 10 µM | 0.001 to 10 µM
14 | O=C(N[C@H]1CC[C@H](NS(=O)(=O)c2cccnc2)CC1)O[C@@H]1CCN(c2cn[nH]c(=O)c2Cl)C1 [P-0295, (R)-1-(5-chloro-6-oxo-1,6-dihydropyridazin-4-yl)pyrrolidin-3-yl ((1r,4R)-4-(pyridine-3-sulfonamido)cyclohexyl) carbamate] | 0.001 to 10 µM | 0.001 to 10 µM
15 | O=C(N[C@H]1CC[C@H](NS(=O)(=O)c2ccc3ncsc3c2)CC1)O[C@@H]1CCN(c2cn[nH]c(=O)c2Cl)C1 [P-0296, (R)-1-(5-chloro-6-oxo-1,6-dihydropyridazin-4-yl)pyrrolidin-3-yl ((1r,4R)-4-(benzo[d]thiazole-6-sulfonamido)cyclohexyl) carbamate] | 0.001 to 10 µM | 0.001 to 10 µM
16 | O=C(N[C@H]1CC[C@H](NS(=O)(=O)c2c(F)cccc2F)CC1)O[C@@H]1CCN(c2cn[nH]c(=O)c2Cl)C1 [P-0297, (R)-1-(5-chloro-6-oxo-1,6-dihydropyridazin-4-yl)pyrrolidin-3-yl ((1r,4R)-4-((2,6-difluorophenyl)sulfonamido)cyclohexyl)carbamate] | 0.001 to 10 µM | 0.001 to 10 µM
17 | O=C(N[C@H]1CC[C@H](NS(=O)(=O)c2cc(F)ccc2F)CC1)O[C@@H]1CCN(c2cn[nH]c(=O)c2Cl)C1 [P-0298, (R)-1-(5-chloro-6-oxo-1,6-dihydropyridazin-4-yl)pyrrolidin-3-yl ((1r,4R)-4-((2,5-difluorophenyl)sulfonamido)cyclohexyl)carbamate] | 0.001 to 10 µM | 0.001 to 10 µM
18 | O=C(N[C@H]1CC[C@H](NS(=O)(=O)c2ccsc2)CC1)O[C@@H]1CCN(c2cn[nH]c(=O)c2Cl)C1 [P-0299, (R)-1-(5-chloro-6-oxo-1,6-dihydropyridazin-4-yl)pyrrolidin-3-yl ((1r,4R)-4-(thiophene-3-sulfonamido)cyclohexyl) carbamate] | 0.001 to 10 µM | 0.001 to 10 µM
19 | O=C(N[C@H]1CC[C@H](NS(=O)(=O)c2cccs2)CC1)O[C@@H]1CCN(c2cn[nH]c(=O)c2Cl)C1 [P-0300, (R)-1-(5-chloro-6-oxo-1,6-dihydropyridazin-4-yl)pyrrolidin-3-yl ((1r,4R)-4-(thiophene-2-sulfonamido)cyclohexyl) carbamate] | 0.001 to 10 µM | 0.001 to 10 µM
20 | O=C(N[C@H]1CC[C@H](NS(=O)(=O)c2ccc(Cl)s2)CC1)O[C@@H]1CCN(c2cn[nH]c(=O)c2Cl)C1 [P-0301, (R)-1-(5-chloro-6-oxo-1,6-dihydropyridazin-4-yl)pyrrolidin-3-yl ((1r,4R)-4-((5-chlorothiophene)-2-sulfonamido)cyclohexyl) carbamate] | 0.001 to 10 µM | 0.001 to 10 µM
